These molecules were tested on RAW264.7 cells (assay: Toxicity test on osteoclast precursors). Details: RAW264.7 cells grown 72 hours with 10 to 100 μM of compound, vs 0.5% DMSO control.
Type: cell-based
Protocol: The selected compounds were then tested for their toxicity on osteoclast precursors. […] RAW264.7 cells used as osteoclasts […] were allowed to grow for 72 hours with 10 to 100 μM of compound. The growth of the cells was compared to control cells which were grown with 0.5% DMSO.

Structure (SMILES)	Concentration μM (optimal concentration which does not affect the growth of the cells) [µM]
O=C1NC(=O)N(c2ccccc2Cl)C(=O)C1=Cc1ccccc1 [Compound 48, 5-benzylidene-1-(2-chlorophenyl)-2,4,6(1H,3H,5H)-pyrimidinetrione]	100
O=Cc1cn(Cc2ccc(Cl)c(Cl)c2)c2ccccc12 [Compound 35, 1-(3,4-dichlorobenzyl)-1H-indole-3-carbaldehyde]	50

The molecules below were run on RAW264.7 cells differentiated in osteoclasts (assay: Toxicity test on differentiated osteoclasts (TRAP staining, morphology)). Details: at the concentration given in Table 2, vs 0.5% DMSO control.
Type: cell-based
Set-up: key: compounds which induce the death of all the osteoclasts after 72 hours (−); compounds which induce morphological anomalies and/or death of part of the osteoclasts (+/−); +: Compounds which do not induce visible modifications of the osteoclasts
Protocol: The compounds were tested for their toxicity on differentiated osteoclasts at the concentration determined above. RAW264.7 cells differentiated in osteoclasts were allowed to grow for 72 hours in presence of the tested compounds. […] This osteoclasts specific labeling permits to visualize the cell morphology. The cell morphology was then compared to control cells which were allowed to grow in presence of 0.5% DMSO.

Structure (SMILES)	Survival at 72 hours
CCC(=O)Nc1ccc(N2CCN(C(C)=O)CC2)cc1 [Compound 13, N-[4-(4-acetyl-1-piperazinyl)phenyl]propanamide]	+
O=C1/C(=C\c2ccc([N+](=O)[O-])cc2)SC(=S)N1c1cccc(C(F)(F)F)c1 [Compound 16, 5-(4-nitrobenzylidene)-2-thioxo-3-[3-(trifluoromethyl)phenyl]-1,3-thiazolidin-4-one]	+/−
Cc1cc(=O)n2ccc(CN(C)C)c(O)c2n1 [Compound 14, 8-[(dimethylamino)methyl]-9-hydroxy-2-methyl-4H-pyrido[1,2-a]pyrimidin-4-one]	+
O=C1c2ccccc2NC(c2ccccc2O)N1Cc1ccco1 (stereo not drawn) [Compound 55, 3-(2-furylmethyl)-2-(2-hydroxyphenyl)-2,3-dihydro-4(1H)-quinazolinone]	−
COCCOC(=O)c1ccc(NC(=O)c2ccc(C(C)(C)C)cc2)cc1 [Compound 44, 2-methoxyethyl 4-[(4-tert-butylbenzoyl)amino]benzoate]	−
O=S(=O)(c1cccc2nsnc12)N1CCN(C(c2ccccc2)c2ccccc2)CC1 [Compound 26, 4-{[4-(diphenylmethyl)-1-piperazinyl]sulfonyl}-2,1,3-benzothiadiazole]	−
O=C1c2ccccc2NC(c2c(Cl)cccc2Cl)N1Cc1ccccc1 (stereo not drawn) [Compound 33, 3-benzyl-2-(2,6-dichlorophenyl)-2,3-dihydro-4(1H)-quinazolinone]	−
COc1ccccc1NC(=O)/C(=C\c1cccs1)NC(=O)c1ccc(C(C)(C)C)cc1 [Compound 46, 4-tert-butyl-N-[1-{[(2-methoxyphenyl)amino]carbonyl}-2-(2-thienyl)vinyl]benzamide]	+
O=C(O)CCC(=O)N1N=C(c2ccc([N+](=O)[O-])cc2)CC1c1ccc(Br)cc1 (stereo not drawn) [Compound 4, 4-[5-(4-bromophenyl)-3-(4-nitrophenyl)-4,5-dihydro-1H-pyrazol-1-yl]-4-oxobutanoic acid]	−
O=C(Nc1cc(Cl)cc(Cl)c1)S(=O)(=O)c1ccccc1 [Compound 21, (3,5-dichlorophenyl)[(phenylsulfonyl)carbonyl]amine]	+/−
CCc1nc(-c2ccccc2)nc(C)c1C [Compound 50, 4-ethyl-5,6-dimethyl-2-phenylpyrimidine]	+
Oc1ccc(-c2nc(-c3ccccc3)c(-c3cccs3)[nH]2)cc1O [Compound 34, 4-[4-phenyl-5-(2-thienyl)-1H-imidazol-2-yl]-1,2-benzenediol]	−
COc1ccc(NC(=O)c2ccccc2Cl)cc1Cl [Compound 51, 2-chloro-N-(3-chloro-4-methoxyphenyl)benzamide]	+
CC1=NN(c2cccc(C(=O)O)c2)C(=O)/C1=C\c1cccc(Br)c1 [Compound 18, 3-[4-(3-bromobenzylidene)-3-methyl-5-oxo-4,5-dihydro-1H-pyrazol-1-yl]benzoic acid]	−
O=C1NC(=O)N(c2ccccc2Cl)C(=O)C1=Cc1ccccc1 [Compound 48, 5-benzylidene-1-(2-chlorophenyl)-2,4,6(1H,3H,5H)-pyrimidinetrione]	+
CC(C)(C)c1cc(C2Nc3cccc4cccc(c34)N2)cc(C(C)(C)C)c1O [Compound 30, 2,6-di-tert-butyl-4-(2,3-dihydro-1H-perimidin-2-yl)phenol]	−
O=Cc1cn(Cc2ccc(Cl)c(Cl)c2)c2ccccc12 [Compound 35, 1-(3,4-dichlorobenzyl)-1H-indole-3-carbaldehyde]	−
COc1cc([N+](=O)[O-])ccc1N=S(C)C [Compound 43, 1-[(dimethyl-lambda~4~-sulfanylidene)amino]-2-methoxy-4-nitrobenzene]	+
O=C(COc1cccc2ccccc12)Nc1ccc2c(c1)OCCO2 [Compound 10, N-(2,3-dihydro-1,4-benzodioxin-6-yl)-2-(1-naphthyloxy)acetamide]	+

Structure (SMILES)	Survival at 72 hours
O=C(/C=C/c1ccc(F)cc1)Nc1ccccc1Cl [Compound 40, N-(2-chlorophenyl)-3-(4-fluorophenyl)acrylamide]	+
Oc1ccccc1C(=S)N1N=C(c2ccccc2)CC1(O)C(F)(F)F (stereo not drawn) [Compound 42, 1-[(2-hydroxyphenyl)carbonothioyl]-3-phenyl-5-(trifluoromethyl)-4,5-dihydro-1H-pyrazol-5-ol]	−
CCOC(=O)C1=C(C)N=c2sc(=Cc3cc(Cl)c(OCC(=O)O)c(OC)c3)c(=O)n2C1c1ccccc1Cl (stereo not drawn) [Compound 25, (2-chloro-4-{[5-(2-chlorophenyl)-6-(ethoxycarbonyl)-7-methyl-3-oxo-5H-[1,3]thiazolo[3,2-a]pyrimidin-2(3H)-ylidene]methyl}-6-methoxyphenoxy)acetic acid]	−
CCOc1ccc(C(=O)Nc2ccc(N3CCN(C(C)=O)CC3)cc2)cc1[N+](=O)[O-] [Compound 27, N-[4-(4-acetyl-1-piperazinyl)phenyl]-4-ethoxy-3-nitrobenzamide]	+
Cc1ccc(N(C(=O)C(Cl)(Cl)Cl)C2C=CS(=O)(=O)C2)cc1 (stereo not drawn) [Compound 5, 2,2,2-trichloro-N-(1,1-dioxido-2,3-dihydro-3-thienyl)-N-(4-methylphenyl)acetamide]	−
C=C1c2ccc(C)cc2NC(=O)N1c1cccc(Cl)c1 [Compound 11, 3-(3-chlorophenyl)-7-methyl-4-methylene-3,4-dihydro-2(1H)-quinazolinone]	−
O=C(O)/C=C/c1ccc(-c2ccc(Cl)c(Cl)c2)o1 [Compound 24, 3-[5-(3,4-dichlorophenyl)-2-furyl]acrylic acid]	−
O=C(COc1ccccc1Cl)Nc1cc(C(F)(F)F)ccc1Cl [Compound 12, 2-(2-chlorophenoxy)-N-[2-chloro-5-(trifluoromethyl)phenyl]acetamide]	+
Cc1ccc(/C=C/C(=O)Nc2ccccc2Br)o1 [Compound 6, N-(2-bromophenyl)-3-(5-methyl-2-furyl)acrylamide]	+
Cc1ccc(OCc2nnc(NC(=O)Nc3ccc(Cl)c(Cl)c3)s2)cc1 [Compound 53, N-(3,4-dichlorophenyl)-N′-{5-[(4-methylphenoxy)methyl]-1,3,4-thiadiazol-2-yl}urea]	+/−
O=C(Nc1ccccc1)Nc1nnc(C23CC4CC(CC(C4)C2)C3)s1 [Compound 49, N-[5-(1-adamantyl)-1,3,4-thiadiazol-2-yl]-N′-phenylurea]	+/−
CCOc1ccc(NC(=O)CSc2nnc(-c3ccc(OC)cc3)o2)cc1 [Compound 3, N-(4-ethoxyphenyl)-2-{[5-(4-methoxyphenyl)-1,3,4-oxadiazol-2-yl]thio}acetamide]	+/−
Cc1ccc(/C=C/C(=O)Nc2cccc(Cl)c2Cl)o1 [Compound 47, N-(2,3-dichlorophenyl)-3-(5-methyl-2-furyl)acrylamide]	−
COc1cccc(/C=C2/C=C(c3ccc(C)cc3)OC2=O)c1 [Compound 23, 3-(3-methoxybenzylidene)-5-(4-methylphenyl)-2(3H)-furanone]	−
O=C(/C=C/c1cccc(C(F)(F)F)c1)Nc1ccc(F)cc1 [Compound 54, N-(4-fluorophenyl)-3-[3-(trifluoromethyl)phenyl]acrylamide]	−
CC(=O)N1CCN(c2ccc([N+](=O)[O-])cc2Cl)CC1C (stereo not drawn) [Compound 22, 1-acetyl-4-(2-chloro-4-nitrophenyl)-2-methylpiperazine]	−
COc1ccc(NC(=O)c2ccc(N(C)S(=O)(=O)c3ccccc3)cc2)cc1OC [Compound 37, N-(3,4-dimethoxyphenyl)-4-[methyl(phenylsulfonyl)amino]benzamide]	−
O=C(Nc1cccc2nsnc12)c1ccc(Br)o1 [Compound 20, N-2,1,3-benzothiadiazol-4-yl-5-bromo-2-furamide]	−

From patent publication US9091678B2, “Method for identifying compounds useful for treating and/or preventing disease-associated bone loss” (priority 2008, dated 2015)
